Reference: patent US20040024024A1, “Aromatic sulfone hydroxamates and their use as protease inhibitors” (priority 2001, published 2004)

How the values were obtained:
Test in all cases: In vitro MMP inhibition, IC50 determination (fluorogenic substrate I)
Assay type in all cases: biochemical
Details in all cases: value outside parenthesis
Human recombinant MMP-1 = target: T1, Human recombinant MMP-1 (Homo sapiens, UniProt P03956)
T1 construct: made in house; host or cells: MMP-1-transfected HT-1080 cells (spent media)
T1 sequence (P03956 100-469): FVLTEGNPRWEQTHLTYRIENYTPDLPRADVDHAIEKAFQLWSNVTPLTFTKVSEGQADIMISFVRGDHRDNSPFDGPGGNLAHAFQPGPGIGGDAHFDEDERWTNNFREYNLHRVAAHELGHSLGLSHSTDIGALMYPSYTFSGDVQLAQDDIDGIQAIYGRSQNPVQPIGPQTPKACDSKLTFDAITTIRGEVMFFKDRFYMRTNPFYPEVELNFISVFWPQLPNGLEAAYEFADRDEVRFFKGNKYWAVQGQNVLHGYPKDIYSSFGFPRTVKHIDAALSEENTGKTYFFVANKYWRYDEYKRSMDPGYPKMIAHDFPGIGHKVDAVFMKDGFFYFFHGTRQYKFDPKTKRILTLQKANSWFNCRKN
How it was run: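 Inhibitor dilutions were made in 100 mM Tris-HCl/100 mM NaCl/10 mM CaCl2 buffer, pH 7.5, and incubated at room temperature with activated proenzyme (from transfected HT-1080 media; APMA or trypsin) and 4 μM quenched methoxycoumarin peptide substrate. Loss of 415 nm fluorescence (328 nm excitation) against concentration gave IC50.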

Human recombinant MMP-9 = target: T2, Human recombinant MMP-9 (Homo sapiens, UniProt P14780)
T2 construct: made in house; host or cells: MMP-9-transfected HT1080 cells (spent media)
How it was run: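 Reduction in fluorescence (328 nm excitation, 415 nm emission) from cleavage of 4 μM quenched peptide substrate I, measured at room temperature against inhibitor concentration, gave IC50. Enzyme: trypsin- or APMA-activated MMP-9 purified from transfected HT1080 medium; buffer 100 mM Tris, 100 mM NaCl, 10 mM CaCl2, pH 7.5.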

Human recombinant MMP-2 = target: T3, Human recombinant MMP-2 (Homo sapiens, UniProt P08253)
T3 construct: made in house; host or cells: MMP-2-transfected p2AHT2 cells
T3 sequence (P08253 110-660): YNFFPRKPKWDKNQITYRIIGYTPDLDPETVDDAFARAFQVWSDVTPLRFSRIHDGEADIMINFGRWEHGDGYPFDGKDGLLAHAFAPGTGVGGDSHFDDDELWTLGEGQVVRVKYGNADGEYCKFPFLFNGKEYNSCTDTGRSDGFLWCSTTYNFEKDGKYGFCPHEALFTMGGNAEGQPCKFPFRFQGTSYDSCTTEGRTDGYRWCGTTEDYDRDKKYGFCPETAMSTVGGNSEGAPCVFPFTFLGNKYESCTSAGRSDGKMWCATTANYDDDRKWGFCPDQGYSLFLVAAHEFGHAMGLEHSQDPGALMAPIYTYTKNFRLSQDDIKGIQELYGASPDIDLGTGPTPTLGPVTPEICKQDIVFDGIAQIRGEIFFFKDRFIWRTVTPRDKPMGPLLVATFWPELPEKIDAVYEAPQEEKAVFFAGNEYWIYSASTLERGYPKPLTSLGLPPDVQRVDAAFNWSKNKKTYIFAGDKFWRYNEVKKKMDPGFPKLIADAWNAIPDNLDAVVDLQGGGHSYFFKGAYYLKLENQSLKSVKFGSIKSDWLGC
How it was run: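 IC50 was derived from the concentration-dependent fall in fluorescence (ex 328, em 415 nm) on Gly-Leu cleavage of 4 μM MCA/Dpa-quenched substrate I. Assays ran at room temperature in pH 7.5 Tris/NaCl/CaCl2/Brij buffer with MMP-2 activated by trypsin or APMA; inhibitors were diluted from 1% DMSO stocks.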

Human recombinant MMP-14 = target: T4, Human recombinant MMP-14 (Homo sapiens, UniProt P50281)
T4 construct: The catalytic domain enzyme was expressed in E. coli inclusion bodies, solubilized in urea; made in house
How it was run: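 IC50 came from reduced fluorescence (ex 328 nm, em 415 nm) as inhibitor concentration rose, with 4 μM substrate I cleaved at Gly-Leu. Room-temperature incubation in pH 7.5 Tris buffer with 10 mM CaCl2; the E. coli-expressed, refolded MMP-14 catalytic domain was activated with trypsin or APMA.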

Human recombinant MMP-13 = target: T5, Human recombinant MMP-13 (Homo sapiens, UniProt P45452)
T5 construct: made in house; host or cells: baculovirus / insect cells
How it was run: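 Fluorescence at 415 nm (excitation 328 nm) reports Gly-Leu cleavage of 4 μM quenched methoxycoumarin peptide substrate I. Human recombinant MMP-13, activated by trypsin or APMA, was incubated at room temperature with varied inhibitor concentrations in pH 7.5 Tris/NaCl/CaCl2 buffer; IC50 derived from reduced fluorescence.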

T2 sequence (P14780 107-707 limits assumed): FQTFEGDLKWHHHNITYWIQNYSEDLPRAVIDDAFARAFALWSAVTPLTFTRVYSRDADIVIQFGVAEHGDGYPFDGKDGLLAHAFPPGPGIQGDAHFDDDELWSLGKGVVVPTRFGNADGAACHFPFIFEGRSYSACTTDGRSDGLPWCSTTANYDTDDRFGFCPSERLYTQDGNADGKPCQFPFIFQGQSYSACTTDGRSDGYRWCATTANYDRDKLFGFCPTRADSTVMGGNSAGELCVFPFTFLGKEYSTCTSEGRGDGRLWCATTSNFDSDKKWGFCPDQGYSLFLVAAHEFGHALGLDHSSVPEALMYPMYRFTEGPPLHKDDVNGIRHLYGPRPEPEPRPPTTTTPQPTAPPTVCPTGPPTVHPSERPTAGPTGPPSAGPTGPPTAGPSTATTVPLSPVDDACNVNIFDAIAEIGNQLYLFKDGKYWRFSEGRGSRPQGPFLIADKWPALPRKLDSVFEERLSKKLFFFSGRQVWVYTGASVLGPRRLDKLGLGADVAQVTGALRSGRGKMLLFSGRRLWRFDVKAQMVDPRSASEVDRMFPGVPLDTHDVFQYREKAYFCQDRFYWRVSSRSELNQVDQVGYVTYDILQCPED

IC50 (Human recombinant MMP-1) [nM]	IC50 (Human recombinant MMP-9) [nM]	IC50 (Human recombinant MMP-2) [nM]	IC50 (Human recombinant MMP-14) [nM]	IC50 (Human recombinant MMP-13) [nM]	SMILES
4380	45.8	20.6	2740	7.5	O=C1N(CCCOc2ccc(S(=O)(=O)C3(C(=O)NO)CCOCC3)cc2)CCN1c1ccc(F)cc1 [Example 195]
7500	1210	84	> 10000	0.6	O=C(NO)C1(S(=O)(=O)c2ccc(OCCCc3nnc(-c4ccc(OC(F)(F)F)cc4)o3)cc2)CCOCC1 [Example 200]
> 10000	4510	128	> 10000	0.7	Cc1ccc(/C(C#N)=C/CCCOc2ccc(S(=O)(=O)C3(C(=O)NO)CCN(C4CC4)CC3)cc2)cc1C [Example 201]
> 10000	6	4.2	> 10000	1	O=C(NO)C1(S(=O)(=O)c2ccc(OCCCSc3nc4ccccc4o3)cc2)CCN(C2CC2)CC1 [Example 203]
> 10000	1820	146	> 10000	0.6	Cc1ccc(-c2nnc(CCCOc3ccc(S(=O)(=O)C4(C(=O)NO)CCOCC4)cc3)o2)c(C)c1 [Example 204]
> 10000	59.4	92.6	3110	15.8	CCCc1ccc(-c2nc(CCCOc3ccc(S(=O)(=O)C4(C(=O)NO)CCN(CCOC)CC4)cc3)oc2C)cc1 [Example 206]
> 10000	127	114	> 10000	3.7	CCCc1ccc(-c2nc(CCCOc3ccc(S(=O)(=O)C4(C(=O)NO)CCOCC4)cc3)oc2C)cc1 [Example 207]
> 10000	6590	230	> 10000	0.6	O=C(NCCCOc1ccc(S(=O)(=O)C2(C(=O)NO)CCN(C3CC3)CC2)cc1)c1ccc(OC(F)(F)F)cc1 [Example 208]
> 10000	906	172	> 10000	1.4	CC(C)Oc1ccc(-c2nnc(CCCOc3ccc(S(=O)(=O)C4(C(=O)NO)CCOCC4)cc3)o2)cc1 [Example 209]
> 10000	285	6.9	> 10000	1.3	O=C(NO)C1(S(=O)(=O)c2ccc(OCCCc3nc(-c4cccc([N+](=O)[O-])c4)no3)cc2)CCOCC1 [Example 210]
9650	864	26.2	> 10000	0.4	O=C(NO)C1(S(=O)(=O)c2ccc(OCCCc3nc(-c4cc(F)ccc4F)no3)cc2)CCOCC1 [Example 211]
1410	212	4.1	> 10000	0.3	O=C(NO)C1(S(=O)(=O)c2ccc(OCCCc3nc(-c4ccc([N+](=O)[O-])cc4)no3)cc2)CCOCC1 [Example 212]
> 10000	2200	54.8	> 10000	2.2	O=C(NO)C1(S(=O)(=O)c2ccc(OCCCc3nc(-c4cccc(Cl)c4Cl)no3)cc2)CCOCC1 [Example 213]
> 10000	4240	15.8	> 10000	3.3	O=C(NO)C1(S(=O)(=O)c2ccc(OCCCc3nc(-c4c(Cl)cccc4Cl)no3)cc2)CCOCC1 [Example 214]
> 10000	768	20.3	> 10000	0.3	O=C(NO)C1(S(=O)(=O)c2ccc(OCCCc3nc(-c4ccc5c(c4)OCO5)no3)cc2)CCOCC1 [Example 215]
> 10000	5180	48.9	> 10000	4.6	COc1cc(OC)cc(-c2noc(CCCOc3ccc(S(=O)(=O)C4(C(=O)NO)CCOCC4)cc3)n2)c1 [Example 217]
> 10000	2970	40.4	> 10000	1.4	Cc1ccc(-c2noc(CCCOc3ccc(S(=O)(=O)C4(C(=O)NO)CCOCC4)cc3)n2)c(F)c1 [Example 218]
> 10000	1470	410	> 10000	5.7	COc1ccccc1-c1nnc(CCCOc2ccc(S(=O)(=O)C3(C(=O)NO)CCOCC3)cc2)o1 [Example 220]
> 10000	1470	193	> 10000	4.7	O=C1CN(c2ccccc2Cl)C(=O)N1CCCOc1ccc(S(=O)(=O)C2(C(=O)NO)CCOCC2)cc1 [Example 224]
> 10000	2140	222	> 10000	4.3	Cc1ccccc1N1CC(=O)N(CCCOc2ccc(S(=O)(=O)C3(C(=O)NO)CCOCC3)cc2)C1=O [Example 226]
> 10000	1020	555	> 10000	1.1	COCCN1CCC(C(=O)NO)(S(=O)(=O)c2ccc(OCCCNC(=O)c3ccc(OC(C)C)c(C)c3)cc2)CC1 [Example 230]
> 10000	10.2	1.6	642	0.2	COc1ccc(C(=O)CCCc2ccc(S(=O)(=O)C3(C(=O)NO)CCOCC3)cc2)cc1 [Example 231]
> 10000	878	74.2	> 10000	5.6	O=C1CN(c2cccc(OC(F)(F)F)c2)C(=O)N1CCCOc1ccc(S(=O)(=O)C2(C(=O)NO)CCOCC2)cc1 [Example 232]
> 10000	1110	42.5	> 10000	0.7	COc1ccc(-c2noc(CCCOc3ccc(S(=O)(=O)C4(C(=O)NO)CCOCC4)cc3)n2)cc1 [Example 237]
> 10000	1190	78.7	> 10000	1.2	Cc1cccc(-c2noc(CCCOc3ccc(S(=O)(=O)C4(C(=O)NO)CCOCC4)cc3)n2)c1 [Example 238]
> 10000	1430	84	> 10000	0.7	O=C(NO)C1(S(=O)(=O)c2ccc(OCCCc3nc(-c4ccc(F)cc4)no3)cc2)CCOCC1 [Example 240]
> 10000	944	60.2	> 10000	1.3	O=C(NO)C1(S(=O)(=O)c2ccc(OCCCc3nc(-c4ccccc4)no3)cc2)CCOCC1 [Example 241]
9310	2100	49.4	> 10000	0.5	O=C(NO)C1(S(=O)(=O)c2ccc(OCCCc3nc(-c4ccc(Cl)cc4)no3)cc2)CCOCC1 [Example 243]
